Several values for one entry are separate records, joined by “and”; a condition that tells them apart may be missing. Equal entries are not always repeated.

Assay [1] concerns H9c2 cardiomyocyte damage induced by hypoxia. Nature of the assay: Hypoxia-induced H9c2 cardiomyocyte damage, nucleus number (Hoechst 33342, high-content imaging). Format: cell-based. The settings on record: 24 h pre-incubation, then hypoxia 8 h; for nucleus number (Table 7): individual replicates N1-N3, 0.4 mg/mL DMSO stock diluted with medium; for nucleus number, Mean (Table 7): mean of N1-N3. The method, then:
(§1) 2. Experimental methods: QSYQ-1 and QSYQ-2, and each active ingredient group were ultrasonically dissolved and prepared into a 0.4 mg/mL of stock solution with DMSO. When in vitro activity evaluation was performed, the above groups were diluted with the same amount of experimental medium respectively.
(§2) The cells were collected at the logarithmic growth phase and added to a 96-well culture plate with a black transparent bottom at a concentration of 5000 cells per well and a volume of 100 μL per well. The cells were incubated in an incubator with 5% CO2 at 37° C. for 24 hours. Subsequently, the tested groups were added to the experimental groups respectively, incubated for 24 hours, and then placed in a hypoxic chamber passing a mixed gas composed of 95% nitrogen and 5% CO2 at a flow rate of 15 L/min for 10 mins, and incubated for another 8 hours after inducing hypoxia damage at 37° C. The model group was only incubated for 8 hours under hypoxia, and the blank control group was incubated normally.
(§3) The labeling operation of cell fluorescent probe was as follows: the mother liquor of fluorescent probe Hoechst 33342 was diluted 1000-fold into a DMEM basic medium; then the mother liquor of MitoTracker Deep Red FM was diluted 10000-fold into a culture medium containing Hoechst 33342 to serve as a “cocktail” stain. The medium in the culture plate was discarded and replaced with the “cocktail” stain, 50 μL per well, and incubated in an incubator away from light for 30 mins. The plate was taken out away from light, and washed with DMEM (high glucose) for 3 times and 5 minutes each time. Live cell imaging was performed subsequently.
(§4) The operation of live cell imaging with HCS was as follows: an excitation light of 360-400 and an emission light of 410-480 were selected for the imaging of Hoechst 33342-labeled nuclei; an excitation light of 620-640 and an emission light of 650-760 were selected for the imaging of MitoTracker Deep Red FM-labeled mitochondria. Harmony 3.0 software was applied to analyze the HCS imaging and read the fluorescence intensities of the nucleus/cytoplasm. The HCS screening system combined the automatic fluorescence microscopy imaging functions, and can perform a high-throughput multi-index analysis. Columbus high-efficiency image and data management and analysis system were applied to perform a secondary analysis and management of the image and data, and draw the dosage-dependent curve relationship.

For assay [2] the test system is unchanged. Nature of the assay: Hypoxia-induced H9c2 cardiomyocyte damage, mitochondrial function (MitoTracker Deep Red FM, high-content imaging). Type of assay: cell-based. The settings on record: 24 h pre-incubation, then hypoxia 8 h; for mitochondrial function (Table 9): individual replicates N1-N3; for mitochondrial function, Mean (Table 9): mean of N1-N3. As for the experimental part:
as §1, §2, §3, §4

As to `O=C(/C=C/c1ccc(O)c(O)c1/C(=C\c1ccc(O)c(O)c1)C(=O)O)O[C@H](Cc1ccc(O)c(O)c1)C(=O)O` [Salvianolic acid U, salvianolic acid U], in assay [1], the “nucleus number (Table 7)” value was 349 and 315 and 252; the “nucleus number, Mean (Table 7)” value came to 305.3. For the same compound, in assay [2], the “mitochondrial function (Table 9)” value is 992.37 and 840.14 and 895.53; the “mitochondrial function, Mean (Table 9)” value was found to be 909.3.
For `O=C(O)Cc1c(/C=C/C(=O)O[C@H](Cc2ccc(O)c(O)c2)C(=O)O)ccc(O)c1O` [Salvianolic acid D, salvianolic acid D], in assay [1], the “nucleus number (Table 7)” value is 306 and 236 and 273; the “nucleus number, Mean (Table 7)” value is given as 271.7. For the same compound, in assay [2], the “mitochondrial function (Table 9)” value is 946.71 and 900.04 and 920.17; the “mitochondrial function, Mean (Table 9)” value came to 922.3.

The values are drawn from US11491173B2, “Pharmaceutical composition and application thereof” (priority 2018, dated 2022).
